6 molecules from the supplement of paper PMC11061612 can be followed below.

Holding throughout (assay): combination Emax (second highest fraction inhibited in the dose matrix, 72 h); higher = more inhibition; extreme values may be limits of the assay
Test [1] deals with 639-V (Bladder Carcinoma). The method in brief:
(§1)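 Bliss excess equals the observed combination effect minus the expected value EA + EB − EA·EB, where EA and EB are the effects of each agent alone. Combination Emax is the second-highest inhibition within the matrix. Inhibition was scaled from CellTiter-Glo 2.0 luminescence, with 0 set by vehicle wells and 1 by blank wells, after 72 hours of two-drug dosing of cells plated in 1536-well plates.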

The test system of test [2] is 8305C (Thyroid Gland Carcinoma). Put shortly: as §1
Test [3] relates to CAL-51 (Breast Carcinoma). The method in brief:
as §1

The test system of test [4] is CAL-54 (Kidney Carcinoma). The method in brief:
as §1

For another test, the system named is COLO-829 (Melanoma). The method in brief: as §1
The subject of test [5] is CTB-1 (B-Cell Non-Hodgkin's Lymphoma). Put shortly:
as §1

The test system of another test is HMV-II (Melanoma). The method in brief:
as §1

The subject of test [6] is Hs-633T (Other Solid Carcinomas). The method in brief: as §1
Test [7] deals with KARPAS-231 (B-Cell Non-Hodgkin's Lymphoma). The method in brief:
as §1

For test [8], the system named is LU-139 (Small Cell Lung Carcinoma). Put shortly:
as §1

The subject of the next test is Mewo (Melanoma). Put shortly:
as §1

The test system of the next test is NCI-H2461 (Mesothelioma). The method in brief: as §1
The subject of test [9] is NCI-H747 (Colorectal Carcinoma). The method in brief: as §1
For test [10], the system named is PCI-30 (Head and Neck Carcinoma). Put shortly: as §1
The test system of test [11] is RPMI-6666 (Non-Cancerous). The method in brief: as §1
For test [12], the system named is RT-112 (Bladder Carcinoma). The method in brief:
as §1

For test [13], the system named is SU-DHL-6 (B-Cell Non-Hodgkin's Lymphoma). The method in brief: as §1
Test [14] relates to SW1116 (Colorectal Carcinoma). Put shortly: as §1
Test [15] has as its system TE-4 (Esophageal Squamous Cell Carcinoma). The method in brief: as §1
Test [16] concerns UMC-11 (Other Solid Carcinomas). The method in brief: as §1

For `CN(CCO)CC[C@H](CSc1ccccc1)Nc1ccc(S(=O)(=O)NC(=O)c2ccc(N3CCC([C@@H](O)c4ccccc4-c4ccc(Cl)cc4)CC3)cc2)cc1S(=O)(=O)C(F)(F)F` [AZD4320] + C[C@@H]1COCCN1C2=NC(=NC(=C2)C3(CC3)[S@](=N)(=O)C)C4=C5C=CNC5=NC=C4 [AZD6738] (first compound max 1 µM, 7x7, partner max 10 µM), the “combination Emax” value worked out at 0.665 in test [1]; 0.834 in test [2]; 0.919 in [3]; 0.835 in test [4]; 0.213 in the test with COLO-829 (Melanoma); 0.768 in test [5]. Also, the “combination Emax” value in the test on HMV-II (Melanoma) amounted to 0.331; in test [6] it was 0.946; in [7] it was 1; in test [8], 0.929; in the test on Mewo (Melanoma), 0.647; in the test with NCI-H2461 (Mesothelioma) it was 0.838. Besides, the “combination Emax” value amounted to 0.333 in test [9]; 0.653 in test [10]; 0.989 in test [11]; 0.863 in [12]; 0.951 in test [13]; 0.375 in [14]. In addition, the “combination Emax” value was 0.691 in [15] and 0.806 in test [16].

Take `COc1cccc(OCCCN)c1-c1cc(Nc2cnc(C#N)cn2)n[nH]1` [Prexasertib] + C[C@@H]1COCCN1C2=NC(=NC(=C2)C3(CC3)[S@](=N)(=O)C)C4=C5C=CNC5=NC=C4 [AZD6738] (first compound max 1 µM, 7x7, partner max 10 µM): the “combination Emax” value came to 0.397 in test [1]; 0.718 in test [2]; 0.929 in test [3]; 0.84 in test [4]; 0.335 in the test on COLO-829 (Melanoma); 0.899 in test [5]. The “combination Emax” value came to 0.565 in the test on HMV-II (Melanoma); 0.936 in test [6]; 0.979 in test [7]; 0.598 in test [8]; 0.479 with Mewo (Melanoma); 0.721 in the test on NCI-H2461 (Mesothelioma). For the same molecule, the “combination Emax” value worked out at 0.443 in [9]; 0.773 in test [10]; 0.955 in test [11]; 0.992 in [12]; 0.621 in test [13]; 0.615 in test [14]. The results for the “combination Emax” value in test [15] and in test [16] were 0.652 and 0.866, respectively.

Take `CC1(C)CCC(CN2CCN(c3ccc(C(=O)NS(=O)(=O)c4ccc(NCC5CCOCC5)c([N+](=O)[O-])c4)c(Oc4cnc5[nH]ccc5c4)c3)CC2)=C(c2ccc(Cl)cc2)C1` [Venetoclax] + Cn1cnc2c(F)c(Nc3ccc(Br)cc3Cl)c(C(=O)NOCCO)cc21 [Selumetinib] (first compound max 1 µM, 7x7, partner max 3 µM): the “combination Emax” value in test [1] was 0.27; in test [2], 0.397; in test [3], 0.214; in [4], 0.205; in the test with COLO-829 (Melanoma) it was 0.426; in test [5] it was 0.105. Moreover, the “combination Emax” value in the test on HMV-II (Melanoma) was 0.779; in test [6] it was 0.228; in test [7] it was 0.812; in test [8], 0.307; in the test on Mewo (Melanoma) it was 0.528; in the test with NCI-H2461 (Mesothelioma), 0.444. In addition, the “combination Emax” value in test [9] stood at 0.717; in test [10] it was 0.206; in test [11] it was 0.959; in test [12], 0.304; in test [13] it was 0.88; in test [14], 0.453. In addition, the figures for the “combination Emax” value in test [15] and in test [16] were 0.114 and 0.17, respectively.

On to `COc1cccc2c1C(=O)c1c(O)c3c(c(O)c1C2=O)C[C@@](O)(C(=O)CO)C[C@@H]3O[C@H]1C[C@H](N)[C@H](O)[C@H](C)O1` [Doxorubicin] + Cc1cc2ncnn2cc1Nc1ncc2c(n1)n(C1CCOCC1)c(=O)n2C [AZD7648] (first compound max 1 µM, 7x7, partner max 10 µM), for which the “combination Emax” value in test [1] turned out to be 0.98; in test [2] it was 0.876; in [3] it was 0.936; in test [4] it was 0.802; in the test on COLO-829 (Melanoma), 0.73; in test [5] it was 0.911. Further, the “combination Emax” value came to 0.907 in the test with HMV-II (Melanoma); 0.932 in test [6]; 0.956 in test [7]; 0.905 in test [8]; 0.599 in the test on Mewo (Melanoma); 0.867 with NCI-H2461 (Mesothelioma). In addition, the “combination Emax” value in [9] is 0.743; in test [10], 0.721; in test [11], 0.971; in test [12], 0.9; in [13], 0.989; in test [14] it was 0.146. For the same molecule, the “combination Emax” value came out at 0.443 in [15] and 0.613 in test [16].

Regarding `CN(CCO)CC[C@H](CSc1ccccc1)Nc1ccc(S(=O)(=O)NC(=O)c2ccc(N3CCC([C@@H](O)c4ccccc4-c4ccc(Cl)cc4)CC3)cc2)cc1S(=O)(=O)C(F)(F)F` [AZD4320] + Cc1cc2ncnn2cc1Nc1ncc2c(n1)n(C1CCOCC1)c(=O)n2C [AZD7648] (first compound max 1 µM, 7x7, partner max 10 µM), the “combination Emax” value in test [1] came to 0.208; in test [2] it was 0.699; in test [3], 0.193; in test [4], 0.372; in the test with COLO-829 (Melanoma), 0.0921; in test [5], 0.317. The “combination Emax” value with HMV-II (Melanoma) was 0.18; in test [6], 0.614; in test [7] it was 1; in [8], 0.937; in the test on Mewo (Melanoma), 0.194; in the test with NCI-H2461 (Mesothelioma) it was 0.293. The “combination Emax” value amounted to 0.387 in [9]; 0.178 in test [10]; 0.898 in test [11]; 0.293 in test [12]; 0.97 in [13]; 0.117 in test [14]. Moreover, the “combination Emax” value stood at 0.173 in test [15] and 0.712 in test [16].

Take `COc1cccc(OCCCN)c1-c1cc(Nc2cnc(C#N)cn2)n[nH]1` [Prexasertib] + Cc1cc2ncnn2cc1Nc1ncc2c(n1)n(C1CCOCC1)c(=O)n2C [AZD7648] (first compound max 1 µM, 7x7, partner max 10 µM): the “combination Emax” value in [1] amounted to 0.362; in [2], 0.724; in test [3] it was 0.916; in test [4], 0.821; in the test on COLO-829 (Melanoma), 0.398; in [5], 0.922. Besides, the “combination Emax” value worked out at 0.525 in the test with HMV-II (Melanoma); 0.948 in test [6]; 0.984 in test [7]; 0.504 in [8]; 0.516 with Mewo (Melanoma); 0.693 in the test on NCI-H2461 (Mesothelioma). Also, the “combination Emax” value was 0.396 in test [9]; 0.721 in test [10]; 0.959 in test [11]; 0.95 in test [12]; 0.629 in test [13]; 0.463 in [14]. Also, the entries for the “combination Emax” value in test [15] and in test [16] were 0.597 and 0.902, respectively.
